From the supplement of paper PMC10307832

Key:
Test in all cases: relative viability (nuclei count vs DMSO), 5 days (fraction); higher = more cells survive
Shikonin + Decitabine = compound: CC(C)=CC[C@@H](O)C1=CC(=O)c2c(O)ccc(O)c2C1=O [Shikonin] + Nc1ncn([C@H]2C[C@H](O)[C@@H](CO)O2)c(=O)n1 [Decitabine] (partner 2 µM)
Method in brief: (§1)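 Relative viability is defined as nuclei in treated wells over nuclei in vehicle wells. Duplicate plates were run and medians reported. Lung cancer cell lines in 1536-well plates were dosed by pin tool one day after seeding, with one drug or with a fixed anchor-drug dose plus five library-drug doses (not always all listed) in √10 steps, and nuclei were counted after 5 days.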

Shikonin + Bortezomib = compound: CC(C)=CC[C@@H](O)C1=CC(=O)c2c(O)ccc(O)c2C1=O [Shikonin] + CC(C)C[C@H](NC(=O)[C@H](Cc1ccccc1)NC(=O)c1cnccn1)B(O)O [Bortezomib] (partner 0.002 µM)
Method in brief: as §1

[1] = compound: CC(C)N(CCCNC(=O)Nc1ccc(C(C)(C)C)cc1)C[C@H]1O[C@@H](n2ccc3c(N)ncnc32)[C@H](O)[C@@H]1O + CCNC(=O)c1noc(-c2cc(C(C)C)c(O)cc2O)c1-c1ccc(CN2CCOCC2)cc1 [Luminespib] (partner 0.01 µM)
Method in brief: as §1

[2] = compound: CC(C)N(CCCNC(=O)Nc1ccc(C(C)(C)C)cc1)C[C@H]1O[C@@H](n2ccc3c(N)ncnc32)[C@H](O)[C@@H]1O + Cc1nc(Nc2ncc(C(=O)Nc3c(C)cccc3Cl)s2)cc(N2CCN(CCO)CC2)n1 [Dasatinib] (partner 0.075 µM)
Method in brief: as §1

Cell Line | relative viability (Shikonin + Decitabine; first compound 0.01 µM) | relative viability (Shikonin + Decitabine; first compound 0.1 µM) | relative viability (Shikonin + Decitabine; first compound 0.3162 µM) | relative viability (Shikonin + Decitabine; first compound 1 µM) | relative viability (Shikonin + Bortezomib; first compound 0.01 µM) | relative viability (Shikonin + Bortezomib; first compound 0.1 µM) | relative viability (Shikonin + Bortezomib; first compound 0.3162 µM) | relative viability (Shikonin + Bortezomib; first compound 1 µM) | relative viability ([1]; first compound 0.08 µM) | relative viability ([1]; first compound 0.253 µM) | relative viability ([1]; first compound 0.8 µM) | relative viability ([1]; first compound 2.53 µM) | relative viability ([1]; first compound 8 µM) | relative viability ([2]; first compound 0.08 µM) | relative viability ([2]; first compound 0.253 µM) | relative viability ([2]; first compound 0.8 µM) | relative viability ([2]; first compound 2.53 µM) | relative viability ([2]; first compound 8 µM)
201T | 0.847 | 0.919 | 0.879 | 0.867 | 1.12 | 1.23 | 1.14 | 1.15 | 1.04 | 1.01 | 1.13 | 0.984 | 1.06 | 0.562 | 0.548 | 0.505 | 0.565 | 0.593
A549 | 0.223 | 0.281 | 0.239 | 0.193 |  |  |  |  |  |  |  |  |  |  |  |  |  | 
A-427 | 0.575 | 0.578 | 0.579 | 0.61 | 1.07 | 1.17 | 0.979 | 1.05 | 0.889 | 0.875 | 1.03 | 0.884 | 0.817 | 0.671 | 0.644 | 0.641 | 0.61 | 0.594
ABC-1 | 1.33 | 1.28 | 1.21 | 1.02 | 0.279 | 0.31 | 0.274 | 0.254 | 0.676 | 0.802 |  | 0.635 | 0.583 | 0.62 | 0.599 |  | 0.712 | 0.524
BEN | 0.658 | 0.787 | 0.707 | 0.767 | 0.826 | 1.04 | 0.748 | 0.849 | 0.347 | 0.461 | 0.282 | 0.442 | 0.303 | 0.29 | 0.347 | 0.312 | 0.314 | 0.312
CAL-12T |  |  |  |  | 0.898 | 1.05 | 1.01 | 1.17 | 0.733 | 0.365 | 0.512 | 0.465 | 0.423 | 0.405 | 0.398 | 0.386 | 0.453 | 0.402
COR-L23 | 0.382 | 0.516 | 0.399 | 0.398 | 1.1 | 1.11 | 1.18 | 0.8 | 0.683 | 0.757 | 0.755 | 0.739 | 0.545 | 0.499 | 0.5 | 0.457 | 0.474 | 0.442
COR-L 105 | 0.64 | 0.703 | 0.625 | 0.477 | 0.88 | 0.887 | 0.751 | 0.603 | 0.705 | 0.811 | 0.601 | 0.827 | 0.736 | 0.298 | 0.347 | 0.308 | 0.31 | 0.391
Calu-6 |  |  |  |  | 1.1 | 1.2 | 0.878 | 0.674 |  |  |  |  |  |  |  |  |  | 
ChaGo-K-1 | 0.521 | 0.529 | 0.513 | 0.567 | 0.957 | 1.35 | 0.911 | 1.53 | 0.583 | 0.552 | 0.47 | 0.683 | 0.643 | 0.532 | 0.672 | 0.556 | 0.552 | 0.497
EBC-1 |  |  |  |  | 0.604 | 0.48 | 0.644 | 0.526 |  |  |  |  |  |  |  |  |  | 
EKVX | 0.295 | 0.367 | 0.312 | 0.584 | 0.995 | 1.81 | 1.28 | 1.18 | 0.758 | 0.847 | 0.838 | 0.909 | 0.846 | 0.571 | 0.502 | 0.509 | 0.517 | 0.524
EMC-BAC-2 | 0.964 | 1.07 | 1.13 | 0.956 | 1.05 | 1.18 | 1.21 | 1.07 | 1.16 | 1.15 | 1.22 | 1.24 | 1.13 | 0.349 | 0.36 | 0.297 | 0.359 | 0.37
EPLC-272H | 0.344 | 0.387 | 0.371 | 0.358 | 0.76 | 0.923 | 0.957 | 0.923 | 0.0863 | 0.265 | 0.268 | 0.46 | 0.232 | 0.354 | 0.394 | 0.508 | 0.373 | 0.439
H3255 | 0.606 | 0.658 | 0.663 | 0.503 | 0.755 | 1.09 | 0.92 | 1.03 | 0.875 | 0.892 | 0.876 | 0.838 | 0.837 | 0.507 | 0.354 | 0.434 | 0.282 | 0.367
HARA | 0.516 | 0.674 | 0.691 | 0.591 | 1.16 | 1.24 | 1.16 | 1.24 | 0.682 | 0.626 | 0.731 | 0.536 | 0.587 | 0.27 | 0.282 | 0.278 | 0.22 | 0.244
HCC-15 | 0.575 | 0.848 | 0.638 | 0.792 | 1.16 | 1.15 | 1.08 | 1.22 | 0.327 | 0.378 | 0.435 | 0.33 | 0.31 | 0.596 | 0.684 | 0.574 | 0.581 | 0.591
